According to EP3378852A1, “AMORPHOUS FORM OF APREMILAST, PREPARATION METHOD THEREFOR, AND APPLICATION THEREOF” (Changzhou Ainuoxinrui Pharmaceuticals, Ltd., priority 2015, dated 2017):
Values after ≈ are worked out from the molar mass of the structure shown.

Experiments:
Format in all cases: physicochemical
[1] = Determination of apparent solubility (shake flask, 37 °C, 12 h, HPLC external standard); details: for Apparent solubility / solubility at 12 h: 37 °C ± 0.5 °C, 12h; for solubility at 12 h: thermodynamic from solid
Experimental: Example 11: Determination of Apparent solubility
The apparent solubility of the amorphous form of Apremilast in the present invention and the Apremilast crystal form is compared.
The test objects were as follows: the amorphous form of Apremilast obtained in Example 1 of the present invention; the crystal Form B of Apremilast was prepared according to the patent CN102702070 Example 12. […]
Preparation of diluents of different pH: • (1) pH=1.0 diluent: Add 9 mL of concentrated HCl to a 1000 mL of volumetric flask, diluted to the volume with water. • (2) pH=2.0 diluent: Solution A: Transfer 16.6 mL of phosphoric acid to a 100 mL volumetric flask, dilute to the volume with water, shake to mix. Solution B: Weigh and transfer 71.63g of […] phosphate to a 1000 mL of volumetric flask, dilute to the volume with water, dissolve and mix well. […]
Example 51: Determination of Apparent solubility
The test objects were as follows: the solid dispersion of amorphous Apremilast obtained in Example 23 of the present invention; the physical mixture comprising Apremilast crystalline (Apremilast crystal Form B, sorbitol and polyacrylic resin Eudragit L100 were mixed physically, and the weight ratio is 1:1:1, and the crystal Form B of Apremilast was prepared according to the patent CN102702070 Example 12.).

[2] = Impact factor test (high temperature / high humidity stress stability; related substances by HPLC, crystallinity by XRPD)
Experimental: Example 9: Impact factor test of the amorphous Apremilast
Material: Amorphous Apremilast was prepared according to the method of Example 1
(§1) Experiment conditions: temperature 40 °C ± 2 °C, humidity 75% ± 5%
The substance was detected by HPLC.
Example 46: Impact factor test of the solid dispersion of amorphous Apremilast and hydroxypropylcellulose SSL and povidone K30
Material: the solid dispersion of amorphous Apremilast and hydroxypropylcellulose SSL and povidone K30 was prepared according to the method of Example 12
Experiment conditions: temperature 40 °C ± 2 °C, humidity 75% ± 5% The substance was detected by HPLC.
Example 49: Impact factor test of the solid dispersion of amorphous Apremilast, sorbitol and polyacrylic resin Eudragit L100 […]

[3] = Accelerated stability test (related substances by HPLC, crystallinity by XRPD); details: for Related substances (Total impurities %) / crystalline (XRPD): Temperature: 40°C±2°C, Humidity: 75%±5%
Experimental: Example 10: Accelerated stability test of the amorphous Apremilast
Material: amorphous Apremilsat was prepared according to the method of Example 1.
as §1
The substance was detected by HPLC. […]

[4] = Temperature 40 °C ± 2 °C, 0 day
[5] = Temperature 40 °C ± 2 °C, 5 days
[6] = Temperature 40 °C ± 2 °C, 10 days
[7] = Temperature 60 °C ± 2 °C, 0 day
[8] = Temperature 60 °C ± 2 °C, 5 days
[9] = Temperature 60 °C ± 2 °C, 10 days
[10] = conditions of high temperature, high humidity after 10 days
[11] = accelerated test conditions after 6 months

CCOc1cc([C@@H](CS(C)(=O)=O)N2C(=O)c3cccc(NC(C)=O)c3C2=O)ccc1OC [The crystal Form B of Apremilast, N-[2-[(1S)-1-(3-ethoxy-4-Methoxyphenyl)-2-(Methylsulfonyl)ethyl]-2,3-dihydro-1,3-dioxo-1H-isoindol-4-yl]-Acetamide, reference compound]
Apparent solubility ([1]; pH value of Dilution 2.0): 7.86 µg/mL | Apparent solubility ([1]; pH value of Dilution 3.0): 48.12 µg/mL | Apparent solubility ([1]; pH value of Dilution 4.5): 24.18 µg/mL | Apparent solubility ([1]; pH value of Dilution 5.0): 9.99 µg/mL | Apparent solubility ([1]; pH value of Dilution 5.6): 16.71 µg/mL | Apparent solubility ([1]; pH value of Dilution 6.8): 12.53 µg/mL | Apparent solubility ([1]; pH value of Dilution 7.4): 10.71 µg/mL

CCOc1cc([C@@H](CS(C)(=O)=O)N2C(=O)c3cccc(NC(C)=O)c3C2=O)ccc1OC [amorphous Apremilast, N-[2-[(1S)-1-(3-ethoxy-4-Methoxyphenyl)-2-(Methylsulfonyl)ethyl]-2,3-dihydro-1,3-dioxo-1H-isoindol-4-yl]-Acetamide]
apparent solubility compared with the crystal form or the physical mixture comprising crystal Form B ([1]; at each pH): significantly higher | apparent solubility increases ([1]; in most pH conditions): more than 60% | solubility at 12 h ([1]; pH 3.0 acetate diluent, 37 °C, pH 3, aqueous buffer, pH value of Dilution 3.0): 66.8 µg/mL (≈ 145 µM) | solubility at 12 h ([1]; pH 4.5 diluent, 37 °C, pH 4.5, aqueous buffer, pH value of Dilution 4.5): 42.2 µg/mL (≈ 91.7 µM) | solubility at 12 h ([1]; pH 6.8 phosphate diluent, 37 °C, pH 6.8, aqueous buffer, pH value of Dilution 6.8): 23.2 µg/mL (≈ 50.4 µM) | solubility at 12 h ([1]; pH 7.4 phosphate diluent, 37 °C, pH 7.4, aqueous buffer, pH value of Dilution 7.4): 18.7 µg/mL (≈ 40.6 µM) | Apparent solubility ([1]; pH value of Dilution 2.0, listed as The amorphous form of Apremilast obtained in Example 1): 19.32 µg/mL | Apparent solubility ([1]; pH value of Dilution 5.0, listed as The amorphous form of Apremilast obtained in Example 1): 22.81 µg/mL | solubility at 12 h ([1]; phthalate buffer pH 5.6, 37 °C, pH 5.6, aqueous buffer, pH value of Dilution 5.6): 30 µg/mL (≈ 65.2 µM) | Related substances (Total impurities %) ([2]; Humidity 75%±5%, 0 day): 0.08% | crystalline (XRPD) ([2]; Humidity 75%±5%, 0 day): There is no peak of crystalline Apremilast | Related substances (Total impurities %) ([2]; Humidity 75%±5%, 5 days): 0.08% | crystalline (XRPD) ([2]; Humidity 75%±5%, 5 days): There is no peak of crystalline Apremilast | Related substances (Total impurities %) ([2]; Humidity 75%±5%, 10 days): 0.09% | crystalline (XRPD) ([2]; Humidity 75%±5%, 10 days): There is no peak of crystalline Apremilast | Related substances (Total impurities %) ([2]; Humidity 90%±5%, 0 day): 0.08% | crystalline (XRPD) ([2]; Humidity 90%±5%, 0 day): There is no peak of crystalline Apremilast | Related substances (Total impurities %) ([2]; Humidity 90%±5%, 5 days): 0.09% | crystalline (XRPD) ([2]; Humidity 90%±5%, 5 days): There is no peak of crystalline Apremilast | Related substances (Total impurities %) ([2]; Humidity 90%±5%, 10 days): 0.11% | crystalline (XRPD) ([2]; Humidity 90%±5%, 10 days): There is no peak of crystalline Apremilast | Related substances (Total impurities %) [2, 4]: 0.08% | crystalline (XRPD) [2, 4]: There is no peak of crystalline Apremilast | Related substances (Total impurities %) [2, 5]: 0.10% | crystalline (XRPD) [2, 5]: There is no peak of crystalline Apremilast | Related substances (Total impurities %) [2, 6]: 0.12% | crystalline (XRPD) [2, 6]: There is no peak of crystalline Apremilast | Related substances (Total impurities %) [2, 7]: 0.08% | crystalline (XRPD) [2, 7]: There is no peak of crystalline Apremilast | Related substances (Total impurities %) [2, 8]: 0.12% | crystalline (XRPD) [2, 8]: There is no peak of crystalline Apremilast | Related substances (Total impurities %) [2, 9]: 0.14% | crystalline (XRPD) [2, 9]: There is no peak of crystalline Apremilast | changes in the related substances [2, 10]: no significant changes | crystallization of Apremilast [2, 10]: no crystallization of Apremilast was observed | Related substances (Total impurities %) ([3]; 0 month): 0.08% | crystalline (XRPD) ([3]; 0 month): There is no peak of crystalline Apremilast | Related substances (Total impurities %) ([3]; 1 month): 0.10% | crystalline (XRPD) ([3]; 1 month): There is no peak of crystalline Apremilast | Related substances (Total impurities %) ([3]; 2 months): 0.14% | crystalline (XRPD) ([3]; 2 months): There is no peak of crystalline Apremilast | Related substances (Total impurities %) ([3]; 3 months): 0.16% | crystalline (XRPD) ([3]; 3 months): There is no peak of crystalline Apremilast | Related substances (Total impurities %) ([3]; 6 months): 0.18% | crystalline (XRPD) ([3]; 6 months): There is no peak of crystalline Apremilast | changes in the related substances [3, 11]: no significant changes | crystallization of Apremilast [3, 11]: no crystallization of Apremilast was observed
